Reference: patent publication US20250145625A1, “PYRAZOLOPYRIMIDINE DERIVATIVE AND ANTICANCER PHARMACEUTICAL COMPOSITION CONTAINING SAME AS ACTIVE INGREDIENT” (KOREA RESEARCH INSTITUTE OF CHEMICAL TECHNOLOGY, priority 2021, published 2025)

How the values were obtained:
[1] = test system: MDA-MB-231 triple negative breast cancer cell line; experiment: Cytotoxicity in TTK-expressed MDA-MB-231 cells; format: cell-based; settings: Homo sapiens, MDA-MB-231, 120 h, 5 days
Procedure: To determine the cytotoxicity of a compound represented by Chemical Formula 1 according to the present invention to MDA-MB-231 cells, the following test was conducted.
MDA-MB-231 triple negative breast cancer cell line purchased from ATCC was inoculated into each well of a 96-well plate at a volume of 90 μL containing 2,000 cells. Thereafter, an example compound of the present invention was added to respective wells at concentrations of 10 μM, 3 μM, 1 μM, 0.3 μM, 0.1 μM, and 0 μM, and the cells were cultured in a cell incubator at 37° C. for 5 days. Five days later, 10 μL of Cyto X solution (manufacturer: LPS Solution) was added to each of the wells, and the absorbance was measured at 450 nm using an Epoch microplate spectrophotometer (manufacturer: BioTek Instruments Inc.) according to the product's user guide. For cytotoxicity, the IC50 value for cytotoxicity of each compound was calculated by quantifying the number of cells using the measured value.

[2] = test system: HCT116 colon cancer cell line; experiment: Cytotoxicity in TTK-expressed HCT116 cells; format: cell-based; settings: Homo sapiens, HCT-116, 120 h, 5 days
Procedure: To determine the cytotoxicity of a compound represented by Chemical Formula 1 according to the present invention to HCT116 cells, the following test was conducted.
HCT116 colon cancer cell line purchased from ATCC was inoculated into each well of a 96-well plate at a volume of 90 μL containing 2,000 cells. Thereafter, an example compound of the present invention was added to respective wells at concentrations of […], 3 μM, 1 μM, 0.3 μM, 0.1 μM, and 0 μM, and the cells were cultured in a cell incubator at 37° C. for 5 days. After 5 days, the number of cells was measured by CCK8 test method, and the cytotoxicity was determined by calculating the IC50 value for cytotoxicity of each compound.

[3] = biological target: recombinant human TTK protein (Homo sapiens (Human), UniProt P33981); experiment: Evaluation of TTK activity inhibitory ability (scintillation counting); format: biochemical; settings: TTK inhibitory activity; read-out: IC50;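 further: reaction stopped with 0.5% phosphoric acid, spotted on P30 filter, TTK activity counted by scintillation, uninhibited no-compound wells taken as 100% control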
Chain of recombinant human TTK protein (P33981 whole entry): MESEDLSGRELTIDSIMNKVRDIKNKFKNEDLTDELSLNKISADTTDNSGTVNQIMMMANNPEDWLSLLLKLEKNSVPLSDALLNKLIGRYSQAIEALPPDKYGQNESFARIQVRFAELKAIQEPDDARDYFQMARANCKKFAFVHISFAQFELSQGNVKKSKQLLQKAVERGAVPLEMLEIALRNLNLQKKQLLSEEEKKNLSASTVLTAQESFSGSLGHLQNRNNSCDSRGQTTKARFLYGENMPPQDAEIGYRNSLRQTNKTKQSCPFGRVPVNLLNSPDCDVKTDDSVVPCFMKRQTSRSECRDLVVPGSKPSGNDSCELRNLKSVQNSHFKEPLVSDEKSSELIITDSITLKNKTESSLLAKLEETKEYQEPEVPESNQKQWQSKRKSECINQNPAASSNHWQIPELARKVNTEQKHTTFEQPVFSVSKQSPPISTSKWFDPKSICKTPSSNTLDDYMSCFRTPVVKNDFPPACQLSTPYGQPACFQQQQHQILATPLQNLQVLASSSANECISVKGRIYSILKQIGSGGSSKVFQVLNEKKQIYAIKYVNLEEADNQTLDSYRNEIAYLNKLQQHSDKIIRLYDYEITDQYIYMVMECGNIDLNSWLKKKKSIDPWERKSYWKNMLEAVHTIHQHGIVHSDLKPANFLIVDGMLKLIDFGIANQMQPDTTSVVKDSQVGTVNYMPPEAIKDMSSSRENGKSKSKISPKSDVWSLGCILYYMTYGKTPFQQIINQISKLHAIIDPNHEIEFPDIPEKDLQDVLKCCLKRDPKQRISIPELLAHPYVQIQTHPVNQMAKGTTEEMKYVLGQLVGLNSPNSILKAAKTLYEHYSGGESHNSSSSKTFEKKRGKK
Procedure: To determine the ability of a compound represented by Chemical Formula 1 according to the present invention to inhibit TTK activity, the following experiment was conducted.
After that, the reaction was terminated by adding phosphoric acid to a concentration of 0.5%, and 10 of the reaction solution was dropped onto a P30 filter. […] The activity of TTK was measured through scintillation counting. The activity value from the group with no compound was set as 100% of control, and the degree of TTK inhibition by the compound was calculated.

Row | SMILES | IC50 [1] | IC50 [2] | IC50 [3]
1 | COc1cc(N2CCOCC2)ccc1Nc1nc(NC2CCCCC2)c2c(-c3cccc(C(N)=O)c3)n[nH]c2n1 [Compound 8-2, 3-(4-(Cyclohexylamino)-6-((2-methoxy-4-morpholinophenyl)amino)-1H-pyrazolo[3,4-d]pyrimidin-3-yl)benzamide] | > 1000 nM | > 1000 nM | 
2 | COc1cc(N2CCOCC2)ccc1Nc1nc(NC2CCCCC2)c2c(-c3cccc(NC(=O)C4CC4)c3)n[nH]c2n1 [Compound 8-4, N-(3-(4-(cyclohexylamino)-6-((2-methoxy-4-morpholinophenyl)amino)-1H-pyrazolo[3,4-d]pyrimidin-3-yl)phenyl)cyclopropanecarboxamide] | 500 to 1000 nM | > 1000 nM | 
3 | CNC(=O)c1cccc(-c2n[nH]c3nc(Nc4ccc(N5CCOCC5)cc4OC)nc(NC4CCCCC4)c23)c1 [Compound 8-5, 3-(4-(cyclohexylamino)-6-((2-methoxy-4-morpholinophenyl)amino)-1H-pyrazolo[3,4-d]pyrimidin-3-yl)-N-methylbenzamide] | > 1000 nM | > 1000 nM | 
4 | COc1cc(N2CCOCC2)ccc1Nc1nc(NC2CCCCC2)c2c(-c3cccc(NS(C)(=O)=O)c3)n[nH]c2n1 [Compound 8-6, N-(3-(4-(cyclohexylamino)-6-((2-methoxy-4-morpholinophenyl)amino)-1H-pyrazolo[3,4-d]pyrimidin-3-yl)phenyl)methanesulfonamide] | > 1000 nM | > 1000 nM | 30 to 100 nM
5 | COc1cc(N2CCOCC2)ccc1Nc1nc(NC2CCCCC2)c2c(-c3cnn(C)c3)n[nH]c2n1 [Compound 8-7, N^4-cyclohexyl-N^6-(2-methoxy-4-morpholinophenyl)-3-(1-methyl-1H-pyrazol-4-yl)-1H-pyrazolo[3,4-d]pyrimidine-4,6-diamine] | 150 to 500 nM | 500 to 1000 nM | 100 to 300 nM
6 | COc1cc(N2CCOCC2)ccc1Nc1nc(NC2CCCCC2)c2c(-c3cnn(C(F)F)c3)n[nH]c2n1 [Compound 8-12, N^4-cyclohexyl-3-(1-(difluoromethyl)-1H-pyrazol-4-yl)-N^6-(2-methoxy-4-morpholinophenyl)-1H-pyrazolo[3,4-d]pyrimidine-4,6-diamine] | 150 to 500 nM | 150 to 500 nM | 30 to 100 nM
7 | COc1cc(N2CCOCC2)ccc1Nc1nc(NC2CCCCC2)c2c(-c3ccn(C)n3)n[nH]c2n1 [Compound 8-13, N^4-cyclohexyl-N^6-(2-methoxy-4-morpholinophenyl)-3-(1-methyl-1H-pyrazol-3-yl)-1H-pyrazolo[3,4-d]pyrimidine-4,6-diamine] | 500 to 1000 nM | 500 to 1000 nM | < 30 nM
8 | COc1cc(N2CCOCC2)ccc1Nc1nc(NC2CCCCC2)c2c(-c3ccco3)n[nH]c2n1 [Compound 8-14, N^4-cyclohexyl-3-(furan-2-yl)-N^6-(2-methoxy-4-morpholinophenyl)-1H-pyrazolo[3,4-d]pyrimidine-4,6-diamine] | 150 to 500 nM | 150 to 500 nM | 30 to 100 nM
9 | COc1cc(N2CCOCC2)ccc1Nc1nc(NC2CCCCC2)c2c(-c3cncs3)n[nH]c2n1 [Compound 8-15, N^4-cyclohexyl-N^6-(2-methoxy-4-morpholinophenyl)-3-(thiazol-5-yl)-1H-pyrazolo[3,4-d]pyrimidine-4,6-diamine] | 150 to 500 nM | 150 to 500 nM | < 30 nM
10 | COc1cc(N2CCOCC2)ccc1Nc1nc(NC2CCCCC2)c2c(-c3ccc4[nH]cnc4c3)n[nH]c2n1 [Compound 8-16, 3-(1H-benzo[d]imidazol-5-yl)-N^4-cyclohexyl-N^6-(2-methoxy-4-morpholinophenyl)-1H-pyrazolo[3,4-d]pyrimidine-4,6-diamine] | 500 to 1000 nM | < 150 nM | 30 to 100 nM
11 | COc1cc(N2CCOCC2)ccc1Nc1nc(NC2CCCCC2)c2c(-c3ccc4[nH]ncc4c3)n[nH]c2n1 [Compound 8-17, N^4-cyclohexyl-3-(1H-indazol-5-yl)-N^6-(2-methoxy-4-morpholinophenyl)-1H-pyrazolo[3,4-d]pyrimidine-4,6-diamine] | 500 to 1000 nM | 500 to 1000 nM | 
12 | COc1cc(N2CCOCC2)ccc1Nc1nc(NC2CCCCC2)c2c(-c3ccc4nc(C)oc4c3)n[nH]c2n1 [Compound 8-18, N^4-cyclohexyl-N^6-(2-methoxy-4-morpholinophenyl)-3-(2-methylbenzooxazol-6-yl)-1H-pyrazolo[3,4-d]pyrimidine-4,6-diamine] | 150 to 500 nM | < 150 nM | 30 to 100 nM
13 | COc1cc(N2CCOCC2)ccc1Nc1nc(NC2CCCCC2)c2c(-c3cn(C)cn3)n[nH]c2n1 [Compound 8-19, N^4-cyclohexyl-N^6-(2-methoxy-4-morpholinophenyl)-3-(1-methyl-1H-imidazol-4-yl)-1H-pyrazolo[3,4-d]pyrimidine-4,6-diamine] | 150 to 500 nM | 500 to 1000 nM | 30 to 100 nM
14 | COc1cc(N2CCOCC2)ccc1Nc1nc(NC2CCCCC2)c2c(-c3cnoc3)n[nH]c2n1 [Compound 8-20, N^4-cyclohexyl-3-(isoxazol-4-yl)-N^6-(2-methoxy-4-morpholinophenyl)-1H-pyrazolo[3,4-d]pyrimidine-4,6-diamine] | < 150 nM | < 150 nM | < 30 nM
15 | COc1cc(N2CCOCC2)ccc1Nc1nc(NC2CCOCC2)c2c(-c3cnoc3)n[nH]c2n1 [Compound 8-21, 3-(Isoxazol-4-yl)-N^6-(2-methoxy-4-morpholinophenyl)-N^4-(tetrahydro-2H-pyran-4-yl)-1H-pyrazolo[3,4-d]pyrimidine-4,6-diamine] | 500 to 1000 nM | 500 to 1000 nM | 30 to 100 nM
16 | COc1cc(N2CCOCC2)ccc1Nc1nc(NC2CCOCC2)c2c(-c3ncco3)n[nH]c2n1 [Compound 8-22, N^6-(2-methoxy-4-morpholinophenyl)-3-(oxazol-2-yl)-N^4-(tetrahydro-2H-pyran-4-yl)-1H-pyrazolo[3,4-d]pyrimidine-4,6-diamine] | 500 to 1000 nM | < 150 nM | < 30 nM
17 | COc1cc(N2CCOCC2)ccc1Nc1nc(NC2CCOCC2)c2c(-c3cnn(C)c3)n[nH]c2n1 [Compound 8-23, N^6-(2-methoxy-4-morpholinophenyl)-3-(1-methyl-1H-pyrazol-4-yl)-N^4-(tetrahydro-2H-pyran-4-yl)-1H-pyrazolo[3,4-d]pyrimidine-4,6-diamine] | 500 to 1000 nM | 150 to 500 nM | < 30 nM
18 | COc1cc(N2CCOCC2)ccc1Nc1nc(NC2CCOCC2)c2c(-c3cnn(C(F)F)c3)n[nH]c2n1 [Compound 8-24, 3-(1-(difluoromethyl)-1H-pyrazol-4-yl)-N^6-(2-methoxy-4-morpholinophenyl)-N^4-(tetrahydro-2H-pyran-4-yl)-1H-pyrazolo[3,4-d]pyrimidine-4,6-diamine] | 150 to 500 nM | 150 to 500 nM | < 30 nM
19 | COc1cc(N2CCOCC2)ccc1Nc1nc(NC2CCOCC2)c2c(-c3ccn(C)n3)n[nH]c2n1 [Compound 8-25, N^6-(2-methoxy-4-morpholinophenyl)-3-(1-methyl-1H-pyrazol-3-yl)-N^4-(tetrahydro-2H-pyran-4-yl)-1H-pyrazolo[3,4-d]pyrimidine-4,6-diamine] | 150 to 500 nM | 150 to 500 nM | < 30 nM
20 | COc1cc(N2CCOCC2)ccc1Nc1nc(NC2CCOCC2)c2c(-c3cccnc3)n[nH]c2n1 [Compound 8-27, N^6-(2-methoxy-4-morpholinophenyl)-3-(pyridin-3-yl)-N^4-(tetrahydro-2H-pyran-4-yl)-1H-pyrazolo[3,4-d]pyrimidine-4,6-diamine] | 500 to 1000 nM | 500 to 1000 nM | < 30 nM
21 | COc1cc(N2CCOCC2)ccc1Nc1nc(NC2CCOCC2)c2c(-c3ccncc3)n[nH]c2n1 [Compound 8-28, N^6-(2-methoxy-4-morpholinophenyl)-3-(pyridin-4-yl)-N^4-(tetrahydro-2H-pyran-4-yl)-1H-pyrazolo[3,4-d]pyrimidine-4,6-diamine] | 150 to 500 nM | 150 to 500 nM | < 30 nM
22 | Cn1cc(-c2n[nH]c3nc(NC4CCC(N5CCOCC5)CC4)nc(NC4CCCCC4)c23)cn1 (stereo not shown) [Compound 8-30, N^4-cyclohexyl-3-(1-methyl-1H-pyrazol-4-yl)-N^6-(4-morpholinocyclohexyl)-1H-pyrazolo[3,4-d]pyrimidine-4,6-diamine] | > 1000 nM |  | 100 to 300 nM
23 | COc1cc(N2CCOCC2)ccc1Nc1nc(NCC2CCCO2)c2c(-c3cnn(C)c3)n[nH]c2n1 (stereo not shown) [Compound 8-34, N^6-(2-methoxy-4-morpholinophenyl)-3-(1-methyl-1H-pyrazol-4-yl)-N^4-((tetrahydrofuran-2-yl)methyl)-1H-pyrazolo[3,4-d]pyrimidine-4,6-diamine] | > 1000 nM | > 1000 nM | < 30 nM
24 | COc1cc(N2CCOCC2)ccc1Nc1nc(NCC2CCCO2)c2c(-c3cnoc3)n[nH]c2n1 (stereo not shown) [Compound 8-35, 3-(Isoxazol-4-yl)-N^6-(2-methoxy-4-morpholinophenyl)-N^4-((tetrahydrofuran-2-yl)methyl)-1H-pyrazolo[3,4-d]pyrimidine-4,6-diamine] | > 1000 nM | > 1000 nM | < 30 nM
